Assays:
[1] = molecular target: T1, aspartic acid endopeptidase (Legumain) (Homo sapiens, UniProt Q99538); assay: Enzymatic cleavage (digestion) efficiency of linkers; format: biochemical; settings: linker cleaved by Legumain
T1 sequence (Q99538 18-323): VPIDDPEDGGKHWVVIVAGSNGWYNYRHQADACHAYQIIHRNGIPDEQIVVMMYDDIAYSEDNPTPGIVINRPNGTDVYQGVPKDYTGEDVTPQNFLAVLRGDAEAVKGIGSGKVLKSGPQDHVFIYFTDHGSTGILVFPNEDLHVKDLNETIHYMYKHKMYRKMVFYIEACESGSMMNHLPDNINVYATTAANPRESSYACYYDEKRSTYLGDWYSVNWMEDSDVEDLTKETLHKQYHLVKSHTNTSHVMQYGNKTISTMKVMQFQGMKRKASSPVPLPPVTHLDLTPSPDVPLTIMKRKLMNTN
Description: (§1) The specific aspartic acid endopeptidase (Legumain) enzyme substrate peptide was ligated to different types of carbohydrates, and the stability and enzymatic cleavage efficiency of the resulting linker were tested, and a strong activation was predicted.

[2] = Stability of carbohydrate-linked enzyme substrate peptide linkers; format: physicochemical; settings: linker: carbohydrate linked to the enzyme substrate peptide
Description: as §1

D121 lung cancer cells = assay: D121 lung cancer immunotherapy model; settings: single agent; for Tumor inhibition rate/% (week 7): i.v. ⅙ MTD once a week for 4 weeks; for CD8: CD45 (%): tumor CD8+ T cells among CD45-positive cells, flow cytometry
Description: (1) D121 lung cancer cells purchased from ATCC were cultured in DMEM medium containing 10% fetal bovine serum at 37° C. and 5% CO2, and the cells were digested with EDTA trypsin according to routine use, and passed two to three times a week for placement.
(2) Animals: C57 BALB/C mice, 6-8 weeks old, female, weighing about 18-22 g, purchased from Shanghai SLAC Laboratory Animal Co., Ltd.
3) Immunization: Mice were intraperitoneally injected with 100 μL of 5×10^5 D121 lung cancer cells that died by repeated freeze-thaw cycles, and immunized 3 times with an interval of 2 weeks.
4) Cell seeding: Collect the tumor cells in logarithmic growth phase, adjust the D121 cell concentration to (1×10^7/ml) with DMEM basal medium, 0.1 ml of the cell suspension was inoculated to the right side of each mouse subcutaneously with a 1 ml syringe. […] Tumor volume was observed and measured, and the average tumor volume reached 100-200 mm^3 about 7 days after inoculation, that is, tumor cell-bearing mice were grouped and administered. The immunized group in Table 9 was immunized with D121 lung cancer cells, and the D121 dead tumor cell immunized group was injected with physiological saline as a control.
The immunosuppressive regulatory point protein Anti-PD-L1 antibody was injected twice a week. A total of two weeks.
6) Experimental observation: During the whole experiment, the use and observation of experimental animals were carried out in accordance with the regulations of AAALAC. The experimental animals were observed daily after inoculation of tumor cells, and their onset and death were recorded. During the routine experiment, all experimental animals were monitored and recorded for behavior, feeding, water intake, weight change, hair shine and other abnormalities.
(7) Analysis of tumor CD8+ T cells (T lymphocyte subsets). Tumor tissues were ground and single cancer cells were isolated by filtration using 40 μm Nylon cell strainer, lysed twice with blood cell lysis buffer for 20 min, washed twice with 1% BSA-PBS buffer, centrifuged, and resuspended, and then the cells were counted again. 1×10^5 cells were incubated with leukocyte co-antigen CD45-PE and CD8-FITC-labeled antibody for 1 hour at room temperature in the dark, and then analyzed the proportion of T lymphocyte antigen (CD8) in leukocyte common antigen (CD45)-positive cells by flow cytometry.

CT26 tumor cells [3] = assay: CT26 immunotherapy model (Example 15); format: in vivo, mice; settings: for Cure rate % / Number of cures: 10 in each group; for Tumor inhibition rate % (Day 42): IV ⅓ MTD once a week, 6 weeks; for Recurrence rate % (Week 7): cured mice re-inoculated with CT26 cells after 50 days
Description: (§2) 1) CT26 tumor cells were purchased from ATCC, and the cells were cultured using a 10% fetal bovine serum DMEM medium at 37° C., 5% CO2. The cells were passaged every 3 days and the cells were used within 15 generations.
(§3) 2) Tumor production: 10^6 live CT26 tumor cells were injected subcutaneously into the back of tumor-immunized […], and treatment was started when the tumor grew to about 0.3-0.4 cm. The tumor size (mm^3) of the mice was recorded and compared with the solvent control group. The tumor inhibition rate on day 42 was calculated in the solvent control group.
(§4) 3) Treatment process: IV injection is used, and the drug is used at a dose of ⅓ MTD once a week Immunosuppressive IV injection treatment once a week for a total of 6 weeks of treatment.
(§5) 4) The cure rate of 10 in each group was counted. After 50 days, the cured mice and wild groups were inoculated […] to detect recurrence.

[4] = Solid stability, 60° C. for 10 days in the dark (HPLC); format: physicochemical; settings: solid, 60° C., 10 days, dark; for Stability(%): content versus time 0
Description: The test was carried out by leaving it at 60° C. for 10 days in the dark. The ratio of the change in the content of the compound to the compound at time 0 was measured by HPLC, and the stability value (%) was calculated.

aspartic endopeptidase = molecular target: T2, aspartic endopeptidase (Homo sapiens, UniProt Q99538); assay: Activation efficiency by aspartic endopeptidase (HPLC); format: biochemical; settings: 1 mg/ml compound, enzyme 1 μmol/L, pH 6.0, 37° C., 2 hours; ratio of released product to original compound
T2 sequence (Q99538 18-323): T1 sequence (Q99538 18-323)
Description: The sample compound and a portion of the control compound (herein, all of the control compounds can be synthesized by a method similar to that described in Examples 1-3) were uniformly diluted 10-fold to 1 mg/ml with the enzyme-digesting solution. In this experiment, 1 mg/ml of the sample compound was added to the aspartic endopeptidase (1 μmol/L, pH 6.0) at 37° C. for 2 hours. After the reaction, the enzyme digest was able to release the enzyme-digested product. The decrease in the compound and the increase in the product were examined by HPLC to compare the enzyme activation efficiency (the ratio of the product released by the enzyme cleavage to the original compound).

[5] = MTD (maximum tolerated dose) acute toxicity in mice; format: in vivo, mouse; settings: mouse, in vivo, BALB/C mice, intravenous, observed 17 days; for MTD at 17 days: female
Excerpt: (§6) Test purpose: to investigate the acute toxicity of highly activated compounds by targeted site molecules of the invention by measuring the MTD (maximum tolerated dose) experiment in mice.
(§7) The injections of each drug and the control drug were uniformly dissolved using water for injection, and diluted to the corresponding dose with physiological saline during the test.
(§8) Methods and results: […] BALB/C mice, weighing 19-21 g, were randomly divided into 10 groups, with 10 mice in each group. […] A control test of the saline group and the adriamycin group injection (commercially available, Beijing Yue kang) was carried out, and the injection volume of each mouse was 0.2 ml. […] On the D3, D5, and D14, blood samples were taken for whole blood count.

BALB/C mouse = assay: as above; format: in vivo; settings: intravenous; for Number of deaths: 10 mice per group; for Death dose: observed 17 days
Excerpt: as §6, §7, §8

[6] = Drug content in tumor tissue homogenate (HPLC); format: in vivo; settings: 10 micromoles per kilogram intravenous, tumor-bearing mice, FIG. 4
Description: Intravenous injection of 10 micromoles per kilogram of the drug into tumor-bearing mice, surgically obtained tumor tissue homogenate, and the drug content was determined by the HPLC method.

CT26 tumor cells [7] = assay: CT26 treatment model (Example 17); format: in vivo, mice; settings: CT26 model as in Example 15
Description: as §2, §3, §4, §5
The CT26 immunotherapy model was constructed as in Example 15, and the pharmacodynamic and immunotherapeutic effects of the compounds S4-S6, S9-S12 and S15-S18 in the CT26 treatment model were tested.

| Compound | Digestion efficiency [1] | stability [2] | Tumor inhibition rate/% (week 7) (D121 lung cancer cells) | CD8: CD45 (%) (D121 lung cancer cells) | Cure rate % (CT26 tumor cells [3]) | Number of cures (CT26 tumor cells [3]) | Tumor inhibition rate % (Day 42) (CT26 tumor cells [3]) | Stability verdict (stable / unstable) [4] | Stability(%) [4] | Activation efficiencies (%) (aspartic endopeptidase) | MTD [5] | Number of deaths (BALB/C mouse) | Death dose (BALB/C mouse) | drug distribution in the tumor [6] | Recurrence rate % (Week 7) (CT26 tumor cells [3]) | MTD at 17 days [5] | CD8: CD45 (%) (CT26 tumor cells [7]) | Number of animals cured (CT26 tumor cells [7]) | Recurrence rate/% (at week 10) (CT26 tumor cells [7]) | Tumor inhibition rate/% (at week 7) (CT26 tumor cells [7]) |
| --- | --- | --- | --- | --- | --- | --- | --- | --- | --- | --- | --- | --- | --- | --- | --- | --- | --- | --- | --- | --- |
| CC(/N=C\[C@H](O)[C@@H](O)[C@H](O)[C@H](O)CO)C(=O)NC(C)C(=O)NC(CC(N)=O)C(=O)Nc1ccc(CO)cc1 (stereo partly drawn) | 25.5% | 89.6% |  |  |  |  |  |  |  |  |  |  |  |  |  |  |  |  |  |  |
| CC(/N=C/[C@H](O)[C@@H](O)[C@H](O)CO)C(=O)NC(C)C(=O)NC(CC(N)=O)C(=O)Nc1ccc(CO)cc1 (stereo partly drawn) | 60.4% | 78.9% |  |  |  |  |  |  |  |  |  |  |  |  |  |  |  |  |  |  |
| CC(/N=C(\CO)C(O)C(O)C(O)CO)C(=O)NC(C)C(=O)NC(CC(N)=O)C(=O)Nc1ccc(CO)cc1 (stereo not drawn) | 35.8% | 85.5% |  |  |  |  |  |  |  |  |  |  |  |  |  |  |  |  |  |  |
| C[C@H](N=C[C@H](O)[C@@H](O)[C@H](O)[C@H](O)CO)C(=O)N[C@@H](C)C(=O)N[C@@H](CC(N)=O)C(=O)Nc1ccc(COC(=O)N(C)CCNC(=O)c2cc(Oc3ccc(NC(=O)Nc4ccc(Cl)c(C(F)(F)F)c4)cc3)ccn2)cc1 [Compound C4, Glucose-AAN-PABC-Compound a, reference compound] |  |  | 40.8% | 10.7% | 0% | 0 | 36.6% | unstable | 85.7% | 46.7% | 80 mg/kg | 2 | 90 mg/kg |  |  |  |  |  |  |  |
| CC(NC(=O)C(C)NC(=O)[C@H](O)[C@H](O)[C@@H](O[C@@H]1O[C@H](CO)[C@H](O)[C@H](O)[C@H]1O)[C@H](O)CO)C(=O)NC(CC(N)=O)C(=O)Nc1ccc(COC(=O)N(C)CCNC(=O)c2cc(Oc3ccc(NC(=O)Nc4ccc(Cl)c(C(F)(F)F)c4)c(F)c3)ccn2)cc1 (stereo partly drawn) [Compound S2, Lacto-AAN-PABC-Compound b] |  |  | 52.4% | 10.5% | 50% | 5 | 92.4% | stable | 99.6% | 88.4% |  | 2 | 350 mg/kg | multiplied in the distribution of sorafenib in the tumor | 0% | 300 mg/kg |  |  |  |  |
| CC(NC(=O)C(C)NC(=O)[C@H](O)[C@H](O)[C@@H](O[C@@H]1O[C@H](CO)[C@H](O)[C@H](O)[C@H]1O)[C@H](O)CO)C(=O)NC(CC(N)=O)C(=O)Nc1ccc(COC(=O)N2CC(C)(C)c3ccc(NC(=O)c4cccnc4NCc4ccncc4)cc32)cc1 (stereo partly drawn) [Compound S6] |  |  | 73.4% | 14.4% |  |  |  |  |  |  |  | 1 | 290 mg/kg |  |  | 280 mg/kg | 14.9% | 1 | 0% | 66.7% |
| CC(NC(=O)C(NC(=O)[C@H](O)[C@H](O)[C@@H](O[C@@H]1O[C@H](CO)[C@H](O)[C@H](O)[C@H]1O)[C@H](O)CO)C(C)C)C(=O)NC(CC(N)=O)C(=O)Nc1ccc(COC(=O)N(C)CCNC(=O)c2cc(Oc3ccc(NC(=O)Nc4ccc(Cl)c(C(F)(F)F)c4)cc3)ccn2)cc1 (stereo partly drawn) [Compound S7, Lacto-VAN-PABC-compound a] |  |  |  |  | 70% | 7 | 84.7% | stable | 97.2% | 90.5% |  | 1 | 345 mg/kg |  | 0% | 300 mg/kg |  |  |  |  |
| CC(NC(=O)C(NC(=O)[C@H](O)[C@H](O)[C@@H](O[C@@H]1O[C@H](CO)[C@H](O)[C@H](O)[C@H]1O)[C@H](O)CO)C(C)C)C(=O)NC(CC(N)=O)C(=O)Nc1ccc(COC(=O)N(C)CCNC(=O)c2cc(Oc3ccc(NC(=O)Nc4ccc(Cl)c(C(F)(F)F)c4)c(F)c3)ccn2)cc1 (stereo partly drawn) [Compound S8, Lacto-VAN-PABC-compound b] |  |  |  |  | 70% | 7 | 73.4% | stable | 98.4% | 93.7% |  | 2 | 340 mg/kg |  | 0% | 280 mg/kg |  |  |  |  |
| CC(NC(=O)C(NC(=O)[C@H](O)[C@H](O)[C@@H](O[C@@H]1O[C@H](CO)[C@H](O)[C@H](O)[C@H]1O)[C@H](O)CO)C(C)O)C(=O)NC(CC(N)=O)C(=O)Nc1ccc(COC(=O)N(C)CCNC(=O)c2cc(Oc3ccc(NC(=O)Nc4ccc(Cl)c(C(F)(F)F)c4)cc3)ccn2)cc1 (stereo partly drawn) [Compound S13, Lacto-TAN-PABC-compound a] |  |  |  |  | 80% | 8 | 79.7% | stable | 98.6% | 98.6% |  | 2 | 360 mg/kg |  | 0% | 320 mg/kg |  |  |  |  |
| CC(NC(=O)C(NC(=O)[C@H](O)[C@H](O)[C@@H](O[C@@H]1O[C@H](CO)[C@H](O)[C@H](O)[C@H]1O)[C@H](O)CO)C(C)O)C(=O)NC(CC(N)=O)C(=O)Nc1ccc(COC(=O)N(C)CCNC(=O)c2cc(Oc3ccc(NC(=O)Nc4ccc(Cl)c(C(F)(F)F)c4)c(F)c3)ccn2)cc1 (stereo partly drawn) [Compound S14, Lacto-TAN-PABC-compound b] |  |  |  |  | 80% | 8 | 85.% | stable | 97.8% | 99.5% |  | 1 | 350 mg/kg |  | 0% | 310 mg/kg |  |  |  |  |
| Lacto-AAN-PABC-Paclitaxel [Compound C5, reference compound] |  |  |  |  |  |  |  | unstable | 89.3% | 59.3% |  |  |  |  |  |  |  |  |  |  |
| PEG-Ala-Ala-ASN-PABC | 68.6% | 97.6% |  |  |  |  |  |  |  |  |  |  |  |  |  |  |  |  |  |  |

— patent US11078232B2, “Preparation and use of molecular site targeted and activated kinase inhibitor” (Yafei Shanghai Biology Medicine Science & Technology Co. …, priority 2017, dated 2021)
